Source: patent US12005142B2, “Sustained-release compositions comprising a therapeutic agent for treating depression or anxiety and uses thereof” (TAIWAN LIPOSOME CO., LTD., priority 2018, dated 2024)
Where a name gives a salt, the structure may show the parent alone. Read-outs that look alike come from different tables or passages of the source.

Tests used:
[1] = free ketamine, intraperitoneal injection in rat; cited from earlier work
[2] = three infusions per week; eight of nine subjects; cited from earlier work
[3] = oral administration; cited from earlier work
[4] = cited from earlier work
[5] = free ketamine IV infusion 10 mg/kg/min over 5 min (50.0 mg/kg), Wistar rats; cited from earlier work
[6] = cited from earlier work; remark: listed apart in the source
[7] = PK study of liposomal ketamine formulation and free ketamine after single subcutaneous injection
Procedure: Blood samples were collected at 15 min, 0.5, 1, 2, 4, 6, 8, 24 and 48 hours post-injection.

[8] = intravenous; of the eight patients enrolled; cited from earlier work
[9] = 3 intravenous infusions, 3-5 days interval; cited from earlier work
[10] = female, Sprague-Dawley, rat, plasma, sc, 5 mg/kg
[11] = free ketamine SC 5.0 mg/kg, rat plasma

SMILES | half-life [1] [min] | time to relapse after the final intravenous infusion [2] [days] | patients showing improvement of mood symptoms [3] | oral bioavailability [4] [%] | t1/2 [5] [min] | patients in whom the therapeutic response was maintained ([6]; for a week after a single intravenous infusion) [%] | patients with >50% decrease in Hamilton Depression Rating Scale (HDRS) score ([6]; one day after a single intravenous infusion, 17 patients) [%] | AUC(0-inf) [7, 10] [ng·h/mL] | AUC(0-t) [7, 10] [ng·h/mL] | Cmax [7, 10] [ng/mL] | half-life [7, 10] [min] | AUC0-inf/dose [7, 11] | AUC0-t/dose [7, 11] | Cmax/dose [7, 11] | time post injection at which ketamine was undetectable in plasma ([7]; free ketamine SC, FIG. 1) [h] | patients remitted to the nondepressed range (MADRS score 10) [8] | patients with a 50% or greater reduction in MADRS scores [8] | persistence of clinical improvement following the final infusion [9]
CNC1(c2ccccc2Cl)CCCCC1=O (stereo not drawn) [Free Ketamine, ketamine hydrochloride] | 78 | ≤ 19 | approximately 30% | 17 | 37.8 | 35 | 71 | 314 | 305 | 190 | 46.2 | 62.9 | 61.0 | 38.0 | 4 |  |  | 
CN1[C@@H]2C[C@@H](OC(=O)[C@H](CO)c3ccccc3)C[C@H]1[C@@H]1O[C@@H]12 [Free Scopolamine, scopolamine hydrobromide trihydrate] |  |  |  |  |  |  |  |  |  |  |  |  |  |  |  | 3 | five | more than 2 weeks
